Results taken from PubChem BioAssay (NCI).
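Cells were grown in 96-well plates and exposed to each compound for 48 hours at five concentrations; endpoints were interpolated linearly between bracketing concentrations, or set to the highest concentration if not reached. TGI marks complete inhibition of growth.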

How the values were obtained:
Assay in all cases: DTP human tumour cell line panel, 48 h
PC-3 prostate = system: PC-3 prostate
MCF7 breast = system: MCF7 breast
SK-MEL-28 melanoma = system: SK-MEL-28 melanoma
DU-145 prostate = system: DU-145 prostate
OVCAR-5 ovarian = system: OVCAR-5 ovarian
HT29 colon = system: HT29 colon
M14 melanoma = system: M14 melanoma
SK-MEL-5 melanoma = system: SK-MEL-5 melanoma
RXF 393 renal = system: RXF 393 renal
SK-MEL-2 melanoma = system: SK-MEL-2 melanoma
BT-549 breast = system: BT-549 breast

SMILES | TGI (PC-3 prostate) [µM] | TGI (MCF7 breast) [µM] | TGI (SK-MEL-28 melanoma) [µM] | TGI (DU-145 prostate) [µM] | TGI (OVCAR-5 ovarian) [µM] | TGI (HT29 colon) [µM] | TGI (M14 melanoma) [µM] | TGI (SK-MEL-5 melanoma) [µM] | TGI (RXF 393 renal) [µM] | TGI (SK-MEL-2 melanoma) [µM] | TGI (BT-549 breast) [µM]
CC1(C)CC2(C)ON=C(c3ccccc3)N2c2ccccc2N1 (stereo not drawn) | 42.1 | 47 | 57.5 | > 100 | > 100 | 29.9 | 40.6 | 30.7 | 54.5 | 40.1 | 36.9
Cc1nc(Nc2nc3ccccc3[nH]2)[nH]c(=O)c1CCO | > 100 | > 100 | > 100 | > 100 | > 100 | > 100 | 98.9 | > 100 | > 84.3 | > 100 | > 100
CC(C)OP(=O)(OC(C)C)C(Nc1cccc(C(F)(F)F)c1)c1ccccc1 (stereo not drawn) | > 100 | > 100 | > 100 | > 100 | > 100 | > 100 | > 100 | 76.5 | > 100 | > 100 | > 100
COc1cccc(C(=O)N[C@@H]2[C@H](O)[C@@H](CO)O[C@H]2n2cnc3c(N)ncnc32)c1 | > 100 | > 100 | > 100 | > 100 | > 100 | > 100 | > 100 | > 100 | > 100 | > 100 | > 100
CC(=O)C1C(=O)C(=O)N(c2ccc(Br)cc2)C1=O (stereo not drawn) | > 100 | > 100 | > 100 | > 100 | > 100 | > 100 | > 100 | > 100 | > 100 | > 100 | > 100
O=[N+]([O-])c1ccc2[nH]c(O)c(N=NC(=S)Nc3ccccc3)c2c1 | 20.7 | 24.6 | 52.2 | 67.3 | 24.7 | 19 | 22.4 | 13.5 | 26.4 | 31.3 | 19.9
NCCC1([N+](=O)[O-])CCNCC1 | > 100 | > 100 | > 100 | > 100 | > 100 | > 100 | > 100 | > 100 | > 100 | > 100 | > 100
C=C(CC)C[C@@H]1C[C@]2(C(=O)OC)c3[nH]c4ccccc4c3CCN2C1=O | 42.8 | 47.2 | 39.9 | > 100 | 56 | 42 | 36.5 | 31.3 | 27.7 | 33.1 | 43.7
O=C1C(NS(=O)(=O)c2ccccc2)=C(N(Cc2ccccc2)Cc2ccccc2)C(=O)c2ccccc21 | > 100 | > 100 | > 100 | > 100 | > 100 | > 100 | > 100 | > 100 | 67.8 | 45.8 | > 100
COC(=O)C1(C)OC(C)=NC1(C(=O)OC)C(=O)OC (stereo not drawn) | > 100 | > 100 | > 100 | > 100 | > 100 | > 100 | > 100 | > 100 | > 100 | > 100 | > 31.6
C[N+]12CCCCC1C(CN1C(=O)c3ccccc3C1=O)CCC2 (stereo not drawn) | > 100 | > 100 | > 100 | > 100 | > 100 | > 100 | > 100 | > 100 | > 100 | > 100 | > 100
CCCCCCC(=O)OC[n+]1cccc(-c2c(COC(=O)NC(C)C)c(COC(=O)NC(C)C)c3n2CCC3)c1 | > 100 | > 100 | > 100 | 98.4 | > 100 | > 100 | > 100 | > 88.9 | 51.5 | 60.4 | > 96.4
COC(=O)[C@@H]1[C@H](O)CC[C@H]2[C@@]1(C)CC[C@@H](C)[C@]2(COC(C)=O)CC(=O)c1ccoc1 | > 50 | > 50 | > 50 | > 50 | > 50 | > 50 | > 50 | > 50 | > 50 | > 50 | > 50
Oc1ccc(Cn2c(-c3ccc(O)cc3)nc3ccccc32)cc1 | > 100 | > 100 | > 100 | > 100 | > 100 | > 100 | > 100 | > 100 | > 100 | > 100 | > 100
O=C1Nc2ccc(Br)cc2/C1=C/C(=O)c1ccccc1 | 26.9 | 15.3 | 32.1 | 23.8 | 53.6 | 3.39 | 28.1 | 41.7 | 5.45 | 32.3 | 24.6
COC(=O)C1=NN2c3ccccc3CN([C@@H](C)c3ccccc3)C(=O)[C@H]2[C@@H]1C | > 100 | > 100 | > 100 | > 100 | > 100 | > 100 | > 100 | 30.1 | > 100 | > 100 | 95.3
O=c1c(Sc2ncccn2)c(Sc2ncccn2)cnn1CCl | 8.79 | 11.6 | 12.7 | 9.23 | 21.1 | 4.67 | 4.76 | 21.2 | 3.46 | 5.88 | 31
COc1ccc(N2C(=O)C3c4[nH]c5ccc(OCc6ccccc6)cc5c4C4CCC(C(C)C)CC4C3C2=O)cc1 (stereo not drawn) | > 100 | > 100 | > 100 | > 100 | > 100 | > 100 | > 100 | > 100 | 32.9 | 40.3 | > 60.4
